Results from EP4722201A1, “3-PHENYLISOXAZOLINE-5-CARBOXAMIDE COMPOUND, AND PREPARATION METHOD THEREFOR, HERBICIDAL COMPOSITION THEREOF AND USE THEREOF” (Jiangsu Flag Chemical Industry Co., Ltd, priority 2023, dated 2024).

Columns and labels:
Experiment in all cases: Indoor herbicide activity determination, Seed Treatment; pre-emergence (soil spray)
Assay type in all cases: in vivo
Digitaria sanguinalis = settings: read-out: Herbicidal activities (inhibition rate) Digitaria sanguinalis; for inhibition at 60 g/ha: 60 g a.i./ha; for inhibition at 120 g/ha: 120 g a.i./ha
Outline: (§1)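 Pre-emergence soil spray; sandy soil pH 6.1, OM 1%, 7 cm pots; seeds covered, wetted from below, 24 h incubation under light at constant temperature; spray tower, 300 mm height, 390 mL/min nozzle flow; readout = % fresh-weight inhibition vs control at 21 d.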

Alopecurus myosuroides = system: Alopecurus myosuroides
Outline: as §1

Lolium multiflorum = system: Lolium multiflorum
Outline: as §1

Alopecurus japonicus = system: Alopecurus japonicus
Outline: as §1

Eleusine indica = system: Eleusine indica
Outline: as §1

Leptochloa chinensis = system: Leptochloa chinensis
Outline: as §1

Aegilops tauschii = settings: read-out: Herbicidal activities (inhibition rate) Aegilops tauschii; for inhibition at 60 g/ha: 60 g a.i./ha; for inhibition at 120 g/ha: 120 g a.i./ha
Outline: as §1

Cyperus iria = settings: read-out: Herbicidal activities (inhibition rate) Cyperus iria; for inhibition at 120 g/ha: 120 g a.i./ha; for inhibition at 60 g/ha: 60 g a.i./ha
Outline: as §1

Eclipta prostrata = settings: read-out: Herbicidal activities (inhibition rate) Eclipta prostrata
Outline: as §1

Compound | inhibition at 60 g/ha (Digitaria sanguinalis) | Herbicidal activities, Alopecurus myosuroides (inhibition rate class) (Alopecurus myosuroides; Dosage 120 g a.i./ha) | Herbicidal activities, Lolium multiflorum (inhibition rate class) (Lolium multiflorum; Dosage 120 g a.i./ha) | Herbicidal activities, Alopecurus japonicus (inhibition rate class) (Alopecurus japonicus; Dosage 120 g a.i./ha) | Herbicidal activities, Eleusine indica (inhibition rate class) (Eleusine indica; Dosage 120 g a.i./ha) | Herbicidal activities, Leptochloa chinensis (inhibition rate class) (Leptochloa chinensis; Dosage 120 g a.i./ha) | inhibition at 60 g/ha (Aegilops tauschii) | inhibition at 120 g/ha (Digitaria sanguinalis) | Herbicidal activities, Alopecurus myosuroides (inhibition rate class) (Alopecurus myosuroides; Dosage 240 g a.i./ha) | Herbicidal activities, Lolium multiflorum (inhibition rate class) (Lolium multiflorum; Dosage 240 g a.i./ha) | Herbicidal activities, Alopecurus japonicus (inhibition rate class) (Alopecurus japonicus; Dosage 240 g a.i./ha) | inhibition at 120 g/ha (Cyperus iria) | Herbicidal activities, Leptochloa chinensis (inhibition rate class) (Leptochloa chinensis; Dosage 240 g a.i./ha) | inhibition at 120 g/ha (Aegilops tauschii) | further results
CC[C@H](C)OC(=O)[C@H]1C[C@@H](NC(=O)[C@@]2(C)CC(c3cc(F)cc(F)c3)=NO2)C1 [I-129] | 60 to 80% | A (A indicates that the inhibition rate was greater than or equal to 80% to 100%) | A (A indicates that the inhibition rate was greater than or equal to 80% to 100%) | A (A indicates that the inhibition rate was greater than or equal to 80% to 100%) | A (A indicates that the inhibition rate was greater than or equal to 80% to 100%) | B (B indicates that the inhibition rate was greater than or equal to 60% to less than 80%) | 80 to 100% |  |  |  |  |  |  |  | 
CC[C@@H](C)OC(=O)[C@H]1C[C@@H](NC(=O)[C@@]2(C)CC(c3cc(F)cc(F)c3)=NO2)C1 [I-128] | 60 to 80% | A (A indicates that the inhibition rate was greater than or equal to 80% to 100%) | A (A indicates that the inhibition rate was greater than or equal to 80% to 100%) | A (A indicates that the inhibition rate was greater than or equal to 80% to 100%) | A (A indicates that the inhibition rate was greater than or equal to 80% to 100%) | A (A indicates that the inhibition rate was greater than or equal to 80% to 100%) | 80 to 100% |  |  |  |  |  |  |  | 
C[S+]([O-])CCOC(=O)C1CC(NC(=O)C2(C)CC(c3cc(F)cc(OC(F)(F)F)c3)=NO2)CO1 (stereo not drawn) [I-383] |  |  |  |  |  |  |  | 80 to 100% | A (A indicates that the inhibition rate was greater than or equal to 80% to 100%) | A (A indicates that the inhibition rate was greater than or equal to 80% to 100%) | A (A indicates that the inhibition rate was greater than or equal to 80% to 100%) | 60 to 80% | A (A indicates that the inhibition rate was greater than or equal to 80% to 100%) | 80 to 100% | 
CC1(C(=O)NC2COC(C(=O)OCCS(C)(=O)=O)C2)CC(c2cc(F)cc(OC(F)(F)F)c2)=NO1 (stereo not drawn) [I-384] |  |  |  |  |  |  |  | 80 to 100% | A (A indicates that the inhibition rate was greater than or equal to 80% to 100%) | A (A indicates that the inhibition rate was greater than or equal to 80% to 100%) | A (A indicates that the inhibition rate was greater than or equal to 80% to 100%) | 60 to 80% | A (A indicates that the inhibition rate was greater than or equal to 80% to 100%) | 80 to 100% | 
C=CC1(C(=O)N[C@H]2C[C@@H](C(=O)OC)C2)CC(c2cc(F)cc(F)c2)=NO1 (stereo partly drawn) [I-3] |  |  |  |  |  |  |  | 80 to 100% | A (A indicates that the inhibition rate was greater than or equal to 80% to 100%) | A (A indicates that the inhibition rate was greater than or equal to 80% to 100%) | A (A indicates that the inhibition rate was greater than or equal to 80% to 100%) | 80 to 100% | A (A indicates that the inhibition rate was greater than or equal to 80% to 100%) |  | inhibition at 120 g/ha (Eclipta prostrata; 120 g a.i./ha): 80 to 100%; Herbicidal activities, Eleusine indica (inhibition rate class) (Eleusine indica; Dosage 240 g a.i./ha): A (A indicates that the inhibition rate was greater than or equal to 80% to 100%)
COC(=O)C1CC(NC(=O)C2(C)CC(c3cc(F)cc(OC(F)F)c3)=NO2)CO1 (stereo not drawn) [I-385] |  |  |  |  |  |  |  | 60 to 80% | A (A indicates that the inhibition rate was greater than or equal to 80% to 100%) | B (B indicates that the inhibition rate was greater than or equal to 60% to less than 80%) | A (A indicates that the inhibition rate was greater than or equal to 80% to 100%) |  | A (A indicates that the inhibition rate was greater than or equal to 80% to 100%) | 80 to 100% | 
C=C[C@]1(C(=O)N[C@H]2C=C[C@@H](C(=O)O)C2)CC(c2cc(F)cc(C(F)(F)F)c2)=NO1 [I-426] | 80 to 100% | A (A indicates that the inhibition rate was greater than or equal to 80% to 100%) | A (A indicates that the inhibition rate was greater than or equal to 80% to 100%) | A (A indicates that the inhibition rate was greater than or equal to 80% to 100%) | A (A indicates that the inhibition rate was greater than or equal to 80% to 100%) | A (A indicates that the inhibition rate was greater than or equal to 80% to 100%) |  |  |  |  |  |  |  |  | inhibition at 60 g/ha (Eclipta prostrata; 60 g a.i./ha): 60 to 80%; inhibition at 60 g/ha (Cyperus iria): 80 to 100%
COC(=O)[C@H]1C[C@@H](NC(=O)C2(C)CC(c3cc(F)cc(OC(F)(F)F)c3)=NO2)CO1 (mixture of isomers) [I-380] |  |  |  |  |  |  |  | 80 to 100% | A (A indicates that the inhibition rate was greater than or equal to 80% to 100%) | A (A indicates that the inhibition rate was greater than or equal to 80% to 100%) | A (A indicates that the inhibition rate was greater than or equal to 80% to 100%) | 80 to 100% | A (A indicates that the inhibition rate was greater than or equal to 80% to 100%) | 80 to 100% | 
COC(=O)[C@@H]1C=C[C@H](NC(=O)C2(C)CC(c3cc(F)cc(OC(F)(F)F)c3)=NO2)C1 (stereo partly drawn) [I-489] |  |  |  |  |  |  |  | 60 to 80% |  |  |  | 80 to 100% |  | 80 to 100% | Herbicidal activity (inhibition rate class), Alopecurus myosuroides (Alopecurus myosuroides; Dosage 240 g a.i./ha): A (A indicates that the inhibition rate was greater than or equal to 80% to 100%); Herbicidal activity (inhibition rate class), Lolium multiflorum (Lolium multiflorum; Dosage 240 g a.i./ha): A (A indicates that the inhibition rate was greater than or equal to 80% to 100%); Herbicidal activity (inhibition rate class), Alopecurus japonicus (Alopecurus japonicus; Dosage 240 g a.i./ha): A (A indicates that the inhibition rate was greater than or equal to 80% to 100%); Herbicidal activity (inhibition rate class), Eleusine indica (Eleusine indica; Dosage 240 g a.i./ha): A (A indicates that the inhibition rate was greater than or equal to 80% to 100%); Herbicidal activity (inhibition rate class), Leptochloa chinensis (Leptochloa chinensis; Dosage 240 g a.i./ha): A (A indicates that the inhibition rate was greater than or equal to 80% to 100%)
CSCCOC(=O)C1CC(NC(=O)C2(C)CC(c3cc(F)cc(OC(F)(F)F)c3)=NO2)CO1 (stereo not drawn) [I-382] |  |  |  |  |  |  |  | 80 to 100% | A (A indicates that the inhibition rate was greater than or equal to 80% to 100%) | A (A indicates that the inhibition rate was greater than or equal to 80% to 100%) | A (A indicates that the inhibition rate was greater than or equal to 80% to 100%) | 80 to 100% | A (A indicates that the inhibition rate was greater than or equal to 80% to 100%) | 80 to 100% | 
C=C[C@]1(C(=O)N[C@H]2C[C@@H](C(=O)OCC(F)(F)F)C2)CC(c2cc(F)cc(F)c2)=NO1 [I-15] | 60 to 80% | A (A indicates that the inhibition rate was greater than or equal to 80% to 100%) | A (A indicates that the inhibition rate was greater than or equal to 80% to 100%) | A (A indicates that the inhibition rate was greater than or equal to 80% to 100%) | A (A indicates that the inhibition rate was greater than or equal to 80% to 100%) | A (A indicates that the inhibition rate was greater than or equal to 80% to 100%) | 80 to 100% |  |  |  |  |  |  |  | 
C=C[C@]1(C(=O)N[C@H]2C[C@@H](C(=O)O[C@H](C)COC)C2)CC(c2cc(F)cc(F)c2)=NO1 [I-19] | 80 to 100% | A (A indicates that the inhibition rate was greater than or equal to 80% to 100%) | A (A indicates that the inhibition rate was greater than or equal to 80% to 100%) | A (A indicates that the inhibition rate was greater than or equal to 80% to 100%) | A (A indicates that the inhibition rate was greater than or equal to 80% to 100%) | A (A indicates that the inhibition rate was greater than or equal to 80% to 100%) | 80 to 100% |  |  |  |  |  |  |  | inhibition at 60 g/ha (Cyperus iria): 60 to 80%
